# According to ChEMBL document CHEMBL1147235, “Isolation and structure determination of lyngbyastatin 3, a lyngbyastatin 1 homologue from the marine cyanobacterium Lyngbya majuscula. Determination of the configuration of the 4-amino-2,2-dimethyl-3-oxopentanoic acid unit in majusculamide C, dolastatin 12, lyngbyastatin 1, and lyngbyastatin 3 …” (J Nat Prod, 2003):
# Calls of active or inactive are those of the source. The rule behind the calls is not given here. *1 amine or outer side, *2 acyl side, *3 side chain or, on linkers, in order; H or OH if unused. Where a SMILES comes first, the peptide text is derived from it. [ ]: non-standard residue; d: D form. X2 = CCC[C@@H](N[*:1])[C@H](C)C(=O)O[C@H](C(=O)[*:2])[C@H](C)CC; X1 = C[C@H](N[*:1])C(=O)C(C)(C)C(=O)[*:2]; NMeY = CN[C@@H](Cc1ccc(O)cc1)C(=O)O; NMeL = CN[C@@H](CC(C)C)C(=O)O; NMeV = CN[C@H](C(=O)O)C(C)C; NMeA = CN[C@@H](C)C(=O)O
# What was measured:
# MC-38 = experiment: Antitumor activity against mouse colon 38 cells implanted mouse; format: functional, cell-based
# KB = experiment: Cytotoxicity against human KB cells; format: functional, cell-based
# Mus musculus = experiment: Antitumor activity against mouse mammary adenocarcinoma 16/C cells implanted mouse; format: functional
# LoVo = experiment: Cytotoxicity against human LoVo cells; format: functional, cell-based
smiles,measurement,setting,value
CCC[C@H]1NC(=O)[C@H](C)N(C)C(=O)C(C)(C)C(=O)[C@H](C)NC(=O)[C@H](Cc2ccc(OC)cc2)N(C)C(=O)[C@H](C(C)C)N(C)C(=O)CNC(=O)[C@H](CC(C)C)N(C)C(=O)CNC(=O)[C@H]([C@H](C)CC)OC(=O)[C@H]1C [lyngbyastatin 3] (cyclo(G[NMeL]G[NMeV][NMeY](Me)[X1][NMeA][X2])),Activity,MC-38,inactive
same,IC50,KB,32 nM
same,Activity,Mus musculus,inactive
same,IC50,LoVo,400 nM
